Measured values reported in patent USRE40155E1, “Methods for treatment of benign and malignant tumors, including lymphomas, leukemias, and leiomyomas” (priority 1995, dated 2008).

Experiments:
AML-3 patients = details: oral, alone; cited from earlier work
[1] = test system: fresh human promyelocytic leukemia cells (AML3); details: cited from earlier work
[2] = test system: human promyelocytic leukemia (HL-60) cells; experiment: Inhibition of proliferation of HL-60 cells, Trypan Blue cell counts; type: cell-based
Source text: Inhibition of proliferation by pirfenidone of human promyelocytic leukemia (HL-60) cells in vitro.
[…] Five ml of each pirfenidone concentration, and of the control were placed into a T25 tissue culture flask along with 1×10^5 cells. Every day for 4 days an aliquote from each flask was taken out, then stained with Trypan Blue, and counts were repeated three times on each aliquote.

human leiomyoma cells = experiment: Leiomyoma cell proliferation, cell counts and Trypan Blue viability on day 7; type: cell-based
Method: Leiomyoma tissues were obtained from several premenopausal women with symptomatic uterine fibroids at elective hysterectomy, and who were not receiving any hormonal or other drug therapy. The fibroid tissues were minced into 1-2 mm# explants and placed in suitable DMEM supplemented with 10% bovine serum. The fibroid tissue was digested for 14-18 hours at 37 degrees C. in an incubator. After centrifugation, a resulting cell pellet was resuspended in DMEM and then placed in culture flasks. The cultures were maintained at 37 degrees centigrade in a humidified atmosphere of 5% CO2 and 95% air.
Leiomyoma cells were plated in 100 mm dishes (100,000 each dish) and allowed to attach overnight in DMEM plus 10% fetal bovine serum until they reached 80-90% confluence.

[3] = test system: human T-cell leukemia (JURKAT) cells; experiment: MTS assay of JURKAT cell proliferation; type: cell-based; details: 900 mcg/ml, 72 hours
Method: Inhibition of proliferation by pirfenidone of human T-cell leukemia (JURKAT) cells in vitro.
(§1) To determine the inhibitory effect of pirfenidone concentrations on human T-cell leukemia (JURKAT), a MTS assay was used which incorporates a tetrazolium dye that measures the cellular conversion of the dye into a formazan product by the activation of NADH-generating dehydrogenases found in metabolically active cells.
(§2) 1. 100 microl. of cells was seeded into 96 well plates at 1×10^5 cells/ml in media containing 100 mcg/ml, 300 mcg/ml and 900 mcg/ml of pirfenidone, as well as a pirfenidone-free media control.
(§3) 2. Cells were incubated at 37 degrees C., at 5.0% CO2 for 72 hours.
(§4) 3. After incubation a standard curve was made of 100 microliters of cells added to the plate at 5×10^5 cells/ml making 1:2 dilutions all the way down to a pre-set degree of dilution.
(§5) 4. 2.0 mls of the MTS solution was mixed with a 100 microliter of the PMS solution, and 20 microliters of this combined dye solution was added to each well and incubated at 37 degrees C., 5.0% CO2 for 3 hours.
(§6) 5. Subsequently the absorbance was read at 490 nm.

[4] = test system: human Burkitt's lymphoma (RAJI) cells; experiment: MTS assay of RAJI cell proliferation; type: cell-based; details: 900 mcg/ml, 72 hours
Method: Inhibition of proliferation by pirfenidone of human Burkitt's lymphoma (RAJI) cells in vitro.
as §1, with “Burkitt's lymphoma (RAJI) cells,” for “human T-cell leukemia (JURKAT),”
as §2, §3, §4, §5, §6

Row | SMILES | clinical response (AML-3 patients) | induction of differentiation in vitro [1] | toxic death of HL-60 cells ([2]; 900 micrograms/ml, after 3 and 4 days) | inhibition of proliferation and cell death of HL-60 cells ([2]; 1400 micrograms/ml) | inhibition at 900 µg/mL ([2]; Homo sapiens, HL-60, 900 micrograms/ml, after 3 and 4 days) | CELL COUNTS (DAY 7) LEIOMYOMA (human leiomyoma cells; 0.01 MG/ML) | RECENT DEAD CELLS (DAY 7) LEIOMYOMA (human leiomyoma cells; 0.01 MG/ML) | CELL COUNTS (DAY 7) LEIOMYOMA (human leiomyoma cells; 0.1 MG/ML) | RECENT DEAD CELLS (DAY 7) LEIOMYOMA (human leiomyoma cells; 0.1 MG/ML) | CELL COUNTS (DAY 7) LEIOMYOMA (human leiomyoma cells; 0.3 MG/ML) | RECENT DEAD CELLS (DAY 7) LEIOMYOMA (human leiomyoma cells; 0.3 MG/ML) | CELL COUNTS (DAY 7) LEIOMYOMA (human leiomyoma cells; 1.0 MG/ML) | RECENT DEAD CELLS (DAY 7) LEIOMYOMA (human leiomyoma cells; 1.0 MG/ML) | percentage of dead leiomyoma cells (human leiomyoma cells; 1000 micrograms/ml) | effect on proliferation of leiomyoma cells (human leiomyoma cells; graded concentrations in the culture media, 7 days (FIG. 4)) | reduction in number of active JURKAT cells [3] | reduction in number of active RAJI cells [4]
1 | CC1=C(/C=C/C(C)=C/C=C/C(C)=C/C(=O)O)C(C)(C)CCC1 [All-trans-retinoic acid] | complete remission | differentiate in vitro to mature functional gramulocytes | – | – | – | – | – | – | – | – | – | – | – | – | – | – | –
2 | Cc1ccc(=O)n(-c2ccccc2)c1 [pirfenidone] | – | – | without causing a toxic death of the cells | deaths of almost all cells | 63% | 315,000 | 8.0 | 205,000 | 10.0 | 170,000 | 6.0 | 69,000 | 16.0 | 16% | significant inhibitory effect | 75% | 45%
